Test results taken from BigSolDB 2.1.

O=P(CCCO)(CCCO)CCCO
Details	solubility (mole fraction)
in acetone, 293.15 K	0.0007
in acetone, 298.14 K	0.00101
in acetone, 303.16 K	0.00151
in acetone, 308.21 K	0.00217
in acetone, 313.17 K	0.00303
in acetone, 318.12 K	0.00425
in acetone, 323.15 K	0.00593
in ethanol, 298.12 K	0.0226
in ethanol, 303.22 K	0.0286
in ethanol, 308.17 K	0.036
in ethanol, 313.1 K	0.0456
in ethanol, 318.08 K	0.0569
in ethanol, 323.11 K	0.0718
in ethanol, 328.16 K	0.0919
in isobutanol, 293.11 K	0.0122
in isobutanol, 298.21 K	0.0154
in isobutanol, 303.13 K	0.019
in isobutanol, 308.15 K	0.0234
in isobutanol, 313.17 K	0.0291
in isobutanol, 318.14 K	0.0357
in isobutanol, 323.23 K	0.0436
in isopropanol, 298.13 K	0.0155
in isopropanol, 303.21 K	0.0187
in isopropanol, 308.15 K	0.0224
in isopropanol, 313.17 K	0.027
in isopropanol, 318.19 K	0.0321
in isopropanol, 323.11 K	0.0386
in isopropanol, 328.18 K	0.0465
in methanol, 298.11 K	0.0527
in methanol, 303.15 K	0.0702
in methanol, 308.18 K	0.091
in methanol, 313.1 K	0.115
in methanol, 318.22 K	0.144
in methanol, 323.14 K	0.176
in methanol, 328.11 K	0.21
in n-butanol, 298.13 K	0.011
in n-butanol, 303.21 K	0.0138
in n-butanol, 308.11 K	0.0163
in n-butanol, 313.17 K	0.02
in n-butanol, 318.15 K	0.0252
in n-butanol, 323.1 K	0.0302
in n-butanol, 328.23 K	0.0369
in n-propanol, 298.16 K	0.0369
in n-propanol, 303.11 K	0.0438
in n-propanol, 308.13 K	0.0517
in n-propanol, 313.12 K	0.062
in n-propanol, 318.16 K	0.0731
in n-propanol, 323.21 K	0.0866
in n-propanol, 328.18 K	0.102
